The record followed here is US8652483B2, “Viral infection enhancing peptide” (priority 2010, dated 2014).

The subject of series [1] is R5 HIV-1 (CCR5 tropic HIV-1 NL4-3 92TH014-2). The series is described as follows: HIV-1 infection of TZM-bl cells, R5 virus. The note with it: for enhancement of HIV infection: 1 ng p24 virus, 100 μg/ml peptide; for enhancers of HIV infection at the lowest viral dose: 0.01 ng p24 virus. Type of series: cell-based.
The nature of series [2]: Thioflavin T (ThT) fluorescence. The format is physicochemical. The note with it: DMSO stock freshly diluted in PBS. Here is the method:
(§1) To investigate if SW1010 (like PAP248-286) forms insoluble aggregates, in particular amyloid like material, the reactivity of a freshly prepared SW1010 peptide solution to the amyloid specific dye Thioflavin T (ThT) was analyzed. […] Further evidence that SW1010 forms amyloid like material was derived by staining with another amyloid specific dye, Congo Red (CR) (Münch et al., 2007). […] Thus, when used to enhance retroviral infection or transduction efficiencies (FIG. 1 F), the peptide of the invention provides an important advantage over SEVI amyloid fibrils that have to be generated by agitating the monomeric PAP248-286 by several hours or days on a table rotator (Münch et al., 2007; Wurm et al., 2009).
(§2) Similarly, all SW1010 derivatives were analyzed for ThT and CR reactivity.

A short description of series [3]: Congo Red (CR) staining assay. Type of series: physicochemical. As to conditions: DMSO stock freshly diluted in PBS. Here is the method: as §1, §2
To test if SWB is soluble in solvents other than DMSO and can form virus enhancing amyloid like material upon diluting in PBS, the inventors resuspended SWB powder in various solvents. […] Since acetic acid stocks were highly toxic for cell culture at higher concentrations, all following SWB stock solutions were then prepared by dissolving the peptide in less cytotoxic DMSO. In all subsequent experiments the concentrations of DMSO in the presence of virus or cells were lower than 1%, preferably between about 0.2 and about 1%.

Series [4] has as its system primary peripheral blood mononuclear cells (PBMC). As to the kind of experiment: Cytotoxicity of SWB. The format is cell-based.
The next series concerns CEM-M7 cells. As to the kind of experiment: Cytotoxicity of SWB. Type of series: cell-based.
A further series deals with KG-1 cells. As to the kind of experiment: Cytotoxicity of SWB. The format is cell-based, human.
For another series, the system named is Jurkat T cells. As to the kind of experiment: Cytotoxicity of SWB. Type of series: cell-based.
A short description of the next series: Solubility limit in DMSO. Type of series: physicochemical. As to conditions: read-out: solubility limit in DMSO (concentrations above were not completely dissolved).

Several values for one entry are separate records, joined by “and”; a condition that tells them apart may be missing. Equal entries are not always repeated. No end group written: not given here.

Take “SW1014: N-terminal half of SW1010 (QIINMWQEVG; SW-peptide derived from peptide gp120 of HIV-1 strain MN (Gurgo et al., 1988))”: the “enhancement of HIV infection” value in series [1] was “weak or no effects”. Moreover, the ThT fluorescence entry in series [2] is listed as “increases fluorescence intensities”. Also, the “Congo Red (CR) staining” value in series [3] is reported as “specific staining”.
Regarding “SWE: variant of SW1010 of different length (QCKIKQIINMW; SW-peptide derived from peptide gp120 of HIV-1 strain MN (Gurgo et al., 1988))”, the “enhancers of HIV infection at the lowest viral dose” value (“enhancers of HIV infection” below) in series [1] is “most potent enhancers”. The ThT fluorescence result in series [2] is “increases fluorescence intensities”. Moreover, the “Congo Red (CR) staining” value in series [3] is given as “specific staining”.
As for “SWNL43: peptide corresponding to SW1010 of the HIV-1 clone NL4-3 (TITLPCRIKQFINMWQEVG; SW-peptide derived from peptide gp120 of HIV-1 strain MN (Gurgo et al., 1988))”, the “enhancement of HIV infection” value in series [1] is “weak or no effects”. Moreover, the “Congo Red (CR) staining” value in series [3] was “did react with CR to a lesser extend”.
Take “SWC: variant of SW1010 of different length (KIKQIINMWQ; SW-peptide derived from peptide gp120 of HIV-1 strain MN (Gurgo et al., 1988))”: the “enhancers of HIV infection” value in series [1] is listed as “most potent enhancers”. Also, the “Congo Red (CR) staining” value in series [3] is reported as “specific staining”.
Turning to QCKIKQIINMWQ [SWB], the toxic effects result (in series [4]; in the series on CEM-M7 cells; in the series on KG-1 cells; with Jurkat T cells) was “no toxic effects” in each case. For the same substance, the solubility in “Solubility limit in DMSO” is 25000 µM and 38000 µg/mL.
As to “SWCON: peptide derived from a SW1010 homologous consensus sequence of all HIV-1 M strains (TITLPCRIKQIINMWQGVG; SW-peptide derived from peptide gp120 of HIV-1 strain MN (Gurgo et al., 1988))”, the “enhancers of HIV infection” value in series [1] is listed as “most potent enhancers”. In addition, the ThT fluorescence entry in series [2] is given as “increases fluorescence intensities”. The “Congo Red (CR) staining” value in series [3] is reported as “specific staining”.
